In patent publication US20110046070A1, “GENE EXPRESSION INHIBITOR SELECTIVE FOR MATRIX METALLOPROTEINASE-9 GENE” (priority 2008, published 2011):

Experiments:
[1] = system: MMP-9 protein in MDA-MB-231 cells; experiment: Western blotting analysis (protein assay); type: cell-based, human; conditions: MDA-MB-231, 48 hours, various concentrations, vs DMSO control
Protocol: MDA-MB-231 cells were treated with the polyamide of the present invention at various concentrations. 48 hours after the treatment, the cells were collected, and the total cell lysate was prepared into an extraction buffer containing a protease inhibition cocktail (Boehringer Ingelheim GmbH, Germany) containing 50 mM Tris-HCl, 150 mM NaCl, 10 mM EDTA and 1% Triton-X. Homogenates were centrifuged at 15,000×g at 4° C. for 10 minutes. The supernatants were collected, and protein concentrations were measured. The protein sample (10 μg) was electrophoresed on NuPAGE+™ 10% Bis-Tris gel (Invitrogen Life Technologies, Corp.) and transferred to a PVDF (polyvinylidene difluoride) membrane (Millipore, Bedford, Mass.). The PVDF membrane was incubated overnight with rabbit anti-MMP-9 polyclonal antibodies (Calbiochem (registered trademark) Biosciences, Inc. La Jolla, Calif.) (1:500) obtained from Calbiochem (registered trademark). The PVDF membrane was washed three times with a Tris buffer containing 0.2% Tween 20. The immunoconjugated proteins were identified through reaction with peroxidase-conjugated goat antibodies against rabbit IgG (MP Biomedicals, Inc.) and subsequently amplified by chemiluminescence detection (Amersham, Piscataway, N.J.).

[2] = system: HeLa cells; experiment: Growth inhibition assay, HeLa; type: cell-based, human; conditions: 0 μM to 30 μM, 72 hours, WST-8
Protocol: (§1) Cell growth inhibition test was conducted using MDA-MB-231 and HeLa cells. The HeLa cells were inoculated at a concentration of 2500 cells/well to a 96-well microtiter plate and incubated for 24 hours in 100 μl of Dulbecco's modified Eagle medium (DMEM) containing 10% fetal bovine serum (Invitrogen). Then, after medium replacement, the cells were cultured for 72 hours in a medium supplemented with 10% fetal bovine serum containing 0 μM to 30 μM (0 μM, 0.3 μM, 1 μM, 3 μM, 10 μM and 30 μM) polyamide HMMP9NFκβ, and 10 μl of live cell counting reagent SF (Nacalai Tesque, Inc.) was added thereto, followed by 2-hour color reaction. Absorbance was measured at 450 nm using an ARVO microtiter plate reader. This experiment was conducted by modified MTT assay (WST-8 ™: Nacalai Tesque, Inc.) using water-soluble formazan.

[3] = system: MMP-9 gelatin degradation activity in culture supernatants of MDA-MB-231 cells; experiment: Zymography assay using gelatin as a substrate; type: cell-based, human; conditions: 48 hours, MDA-MB-231 supernatant; for inhibition at 1 µM: read-out: inhibition of gelatin degradation activity compared with the control
Protocol: Proteins collected from culture supernatants of MDA-MB-231 cells were assayed using Novex (registered trademark) zymogram gelatin gel and XCell SureLock™ Mini-cell (Invitrogen Life Technologies, Corp.). The polyamides of the present invention were separately added at various concentrations to 2.5×10^5 cells. After 48-hour incubation, the supernatants were collected. Proteins from each sample were mixed with Novex (registered trademark) Tris-glycine SDS sample buffer (2×) and separated on a 10% zymogram gelatin gel. The gel was washed with a renaturing buffer and a developing buffer according to the manufacturer's manual. Then, the gel was digitized.

[4] = system: MDA-MB-231 cells; experiment: Growth inhibition assay, MDA-MB-231; type: cell-based, human; conditions: MDA-MB-231, 0 μM to 30 μM, 72 hours, WST-8
Protocol: as §1

[5] = system: human uterine cervix cancer HeLa cells; experiment: Wound-healing migration assay, HeLa; type: cell-based; conditions: 48 hours after the damage, various concentrations
Protocol: A human breast cancer MDA-MB-231 cell strain was used. The cells were cultured at 37° C. in a humid environment containing 5% CO^2 in an RPMI1640 medium (Sigma-Aldrich Corp., St. Louis, Mo., USA) supplemented with 100 μg/ml streptomycin, 100 units/ml penicillin and 10% fetal bovine serum (FBS) (Sigma-Aldrich Corp.). Human uterine cervix cancer HeLa cells were cultured in a Dulbecco's modified Eagle medium (DMEM, Invitrogen Life Technologies, Corp., Carlsbad, Calif.) containing 10% FBS and 2 mM L-glutamine.
To assay cellular migration in the process of wound healing, 3×10^5 cells were inoculated to each well of an 8-well chamber slide, and the cell layer was damaged using a plastic micropipette when the cells reached confluence. The medium and debris were removed by suction, and 100 μl of a fresh medium containing various polyamides was replaced therefor. 48 hours after the damage, the cells were fixed with Diff-Quik solution (SYSMEX INTERNATIONAL REAGENTS CO., LTD., Kobe, Japan), then stained, and photographed using a phase-contrast microscope.

[6] = system: HeLa cells; experiment: Invasion assay into matrigel, HeLa; type: cell-based, human; conditions: various concentrations
Protocol: Cell invasion assay was conducted using a 24-well cell culture BioCoat matrigel invasion chamber (BD Biosciences, Discovery Labware, Bedford, Mass., USA). MDA-MB-231 cells (1×10^3 cells/well) or HeLa cells (1×10^3 cells/well) were suspended in an RPMI1640 or DMEM medium containing 0.1% FBS and added to the upper chamber. An RPMI1640 or DMEM medium containing 5% FBS was added to the lower chamber. Then, the cells were cultured at 37° C. for 22 hours in a 5% CO2 environment. Noninvasive cells remaining on the membrane were wiped off using a cotton swab. Invasion cells were fixed and stained with a Diff-Quik kit. The number of cells invading the membrane was determined in mean±standard deviation from a total of 3 membranes by counting in 10 fields of view per membrane using an optical microscope (200× magnification).

| SMILES | expression of MMP-9 protein [1] | number of live cells (growth inhibition) [2] | inhibition of gelatin degradation activity (enzymatic activity of MMP-9) ([3]; 10 μM) | inhibition at 1 µM ([3]; Homo sapiens) [%] | number of live cells (growth inhibition) [4] | migration of HeLa cells [5] | invasion of HeLa cells into matrigel [6] | inhibition at 10 µM ([3]; Homo sapiens, 10 μM, read-out: inhibition of gelatin degradation activity (enzymatic activity of MMP-9)) [%] |
| --- | --- | --- | --- | --- | --- | --- | --- | --- |
| CC(=O)Nc1cn(C)c(C(=O)Nc2cc(C(=O)NCCC(=O)Nc3cn(C)c(C(=O)Nc4cc(C(=O)Nc5cc(C(=O)NCCCC(=O)Nc6cn(C)c(C(=O)Nc7cn(C)c(C(=O)Nc8cc(C(=O)NCCC(=O)Nc9cn(C)c(C(=O)Nc%10cc(C(=O)NCCC(=O)NCCCN(C)C)n(C)c%10)n9)n(C)c8)n7)n6)n(C)c5)n(C)c4)n3)n(C)c2)n1 [HMMP9AP1] | remarkably inhibited | decreased the number of live cells | almost completely | 50 | decreased the number of live cells | inhibited the migrations | inhibited the invasion activities | – |
| CC(=O)Nc1cc(C(=O)Nc2cc(C(=O)NCCC(=O)Nc3cc(C(=O)Nc4cc(C(=O)NCCCC(=O)Nc5cn(C)c(C(=O)Nc6cn(C)c(C(=O)NCCC(=O)Nc7cc(C(=O)Nc8cc(C(=O)NCCC(=O)NCCCN(C)C)n(C)c8)n(C)c7)n6)n5)n(C)c4)n(C)c3)n(C)c2)n(C)c1 [HMMP9NFκβ] | decreased in an HMMP9NFκβ concentration-dependent manner | decreased the number of live cells in a concentration-dependent manner | – | 62 | decreased the number of live cells in a concentration-dependent manner | inhibit the migration of HeLa cells in a concentration-dependent manner | invasion into matrigel decreases in an HMMP9NFκβ concentration-dependent manner | 82 |
